# Reference: patent EP4674965A1, “SIRNA TARGETING INHIBIN ?E, SIRNA CONJUGATE, AND MEDICAL USE THEREOF” (Tuojie Biotech (Shanghai) Co., Ltd., priority 2023, dated 2024)
# How the values were obtained:
# [1] = test system: human INHBE; test: Multi-concentration-point inhibitory activity against INHBE in human hepatoma cell line (Huh7), qPCR; format: cell-based; settings: for Remaining percentage of target gene mRNA expression (Huh7) (mean, %): Huh7, 24 h; for IC50: Huh7, INHBE mRNA, 24 h
# Excerpt: (§1) After the Q-PCR assay was completed, the corresponding Ct values were obtained based on the threshold automatically set by the system. The expression of a certain gene can be relatively quantified by comparing the Ct values. Comparing Ct refers to calculating the differences in gene expression by the differences from the Ct value of the internal reference gene, which is also referred to as 2-ΔΔCt, where ΔΔCt = [(Ct target gene in experimental group - Ct internal reference in experimental group) - (Ct target gene in control group - Ct internal reference in control group)]. Inhibition rate (%) = (1 - remaining level of target gene expression) × 100%.
# (§2) The results are expressed relative to the remaining percentage of human INHBE mRNA expression in cells treated with the siRNA. The IC50 value corresponds to the concentration of the siRNA used when the remaining percentage of INHBE mRNA expression is 50%.
# (§3) 24 h prior to transfection, Huh7 cells were seeded into a 96-well plate at about 15,000 cells/well, with each well containing 100 µL of a culture medium. The cells were transfected with the samples using Lipofectamine RNAi MAX (ThermoFisher, 13778150) following the instruction manual of the product, with the final concentration gradients of the samples for transfection being 20 nM, 4 nM, 0.8 nM, 0.16 nM, 0.032 nM, 0.0064 nM, and 0.00128 nM. After 24 h of treatment, total cellular RNA extraction was performed using a high-throughput cellular RNA extraction kit (FG0417-L/FG0418-XL, magnetic bead method), followed by an RNA reverse transcription experiment (Takara, RR037A) and a quantitative real-time PCR (Thermo, 4444557) assay. The mRNA level of human INHBE was determined and calibrated on the basis of the GAPDH internal reference gene level.
# The instruments, primer information, and result analysis method involved in this experiment were used with reference to Example 4.
# [2] = test system: monkey INHBE; test: Multi-concentration-point inhibitory activity against INHBE in primary monkey hepatocytes (PCHs), qPCR; format: cell-based; settings: 24 h; for IC50: PCH, monkey INHBE mRNA
# Excerpt: as §1, §2
# as §3, with “PCH” for “Huh7”, “30,000” for “15,000”, “monkey” for “human”
# In the real-time quantitative PCR assay, a probe Q-PCR assay was used. Table 15. Taqman primer information
# The result analysis method and calculation method for the remaining percentage of the target mRNA expression were the same as those in Example 4.
Substance,"Remaining percentage of target gene mRNA expression (Huh7) (mean, %) ([1]; 0.00128 (nM per method))","Remaining percentage of target gene mRNA expression (Huh7) (mean, %) ([1]; 0.0064 (nM per method))","Remaining percentage of target gene mRNA expression (Huh7) (mean, %) ([1]; 0.032 (nM per method))","Remaining percentage of target gene mRNA expression (Huh7) (mean, %) ([1]; 0.16 (nM per method))","Remaining percentage of target gene mRNA expression (Huh7) (mean, %) ([1]; 0.8 (nM per method))","Remaining percentage of target gene mRNA expression (Huh7) (mean, %) ([1]; 4 (nM per method))","Remaining percentage of target gene mRNA expression (Huh7) (mean, %) ([1]; 20 (nM per method))",IC50 [1],"Remaining percentage of target gene mRNA expression (PCH) (mean, %) ([2]; 0.00128 (nM per method))","Remaining percentage of target gene mRNA expression (PCH) (mean, %) ([2]; 0.0064 (nM per method))","Remaining percentage of target gene mRNA expression (PCH) (mean, %) ([2]; 0.032 (nM per method))","Remaining percentage of target gene mRNA expression (PCH) (mean, %) ([2]; 0.16 (nM per method))","Remaining percentage of target gene mRNA expression (PCH) (mean, %) ([2]; 0.8 (nM per method))","Remaining percentage of target gene mRNA expression (PCH) (mean, %) ([2]; 4 (nM per method))","Remaining percentage of target gene mRNA expression (PCH) (mean, %) ([2]; 20 (nM per method))",IC50 [2]
"TJR102152: siRNA conjugate (Tables 14, 16); SS SEQ ID NO: 245, AS SEQ ID NO: 269 (sense UAAUAAUACUAACAUGUUA; antisense UAACAUGUUAGUAUUAUUAUG; conjugate ligand attached, 2'-OMe/2'-F pattern not given here)",108.45%,109.51%,98.76%,76.27%,51.25%,37.74%,25.82%,920 pM,104.56%,77.88%,49.77%,43.37%,49.75%,46.38%,39.63%,30.2 pM
"TJR102154: siRNA conjugate (Tables 14, 16); SS SEQ ID NO: 243, AS SEQ ID NO: 267 (sense UCAAAGCUAUUUUCAUAAU; antisense AUUAUGAAAAUAGCUUUGACU; conjugate ligand attached, 2'-OMe/2'-F pattern not given here)",103.41%,100.81%,91.17%,50.85%,32.23%,30.29%,20.46%,176 pM,85.05%,96.98%,72.01%,50.20%,47.38%,51.47%,58.66%,40 pM
